Values of other authors in PubChem BioAssay AID1259410 (Chemical Carcinogenesis Research Information System (CCRIS), 2018).

Test system: rodent tumor promotion studies, tumor incidence
Test: CCRIS tumor promotion studies

For `CCCCC(CC)COC(=O)c1ccccc1C(=O)OCC(CC)CCCC` (centres undefined), the outcome (Carcinogen: DIETHYLNITROSAMINE [55-18-5], Doses [Carcinogen]: 200 MG/KG BW ONCE (STUDY DURATION: 48 WK), Doses [Promoter]: 0, 30, 300, 3000, 12000 PPM IN DIET FOR 46 WK BEGINNING 2 WK POST CARCINOGEN DOSE AND 1 WK PRIOR TO 2/3 PARTIAL HEPATECT, Doses [Promoter]: 0, 30, 300, 3000, 12000 PPM IN DIET FOR 46 WK BEGINNING 2 WK POST CARCINOGEN DOSE AND 1 WK PRIOR TO 2/3 PARTIAL HEPATECT, Route [Carcinogen]: INTRAPERITONEAL, Route [Promoter]: ORAL, Species: RAT, Strain/Sex: F344/MALE) is listed as “liver: hepatocellular adenoma”, the outcome (Carcinogen: DIETHYLNITROSAMINE [55-18-5], Doses [Carcinogen]: 200 MG/KG BW ONCE (STUDY DURATION: 52 WK), Doses [Promoter]: 0, 30, 300, 3000, 12000 PPM IN DIET FOR 46 WK BEGINNING 2 WK POST CARCINOGEN DOSE AND 1 WK PRIOR TO 2/3 PARTIAL HEPATECT, Doses [Promoter]: 0, 30, 300, 3000, 12000 PPM IN DIET FOR 46 WK BEGINNING 2 WK POST CARCINOGEN DOSE AND 1 WK PRIOR TO 2/3 PARTIAL HEPATECT, Route [Carcinogen]: INTRAPERITONEAL, Route [Promoter]: ORAL, Species: RAT, Strain/Sex: F344/MALE) is listed as “liver: hepatocellular adenoma or carcinoma” and the outcome (Carcinogen: N-ETHYL-N-HYDROXYETHYLNITROSAMINE, 13147-25-6, Doses [Carcinogen]: 0.05% IN DRINKING WATER FOR 2 WK, Doses [Promoter]: 0, 1.2% IN DIET FOR 24 WK POST CARCINOGEN DOSE (STUDY DURATION: 27 WK), Route [Carcinogen]: ORAL, Species: RAT, Strain/Sex: F344/MALE) is listed as “kidney: renal cell tumor”. The outcome (Carcinogen: N-NITROSODIETHYLAMINE, 55-18-5, Doses [Carcinogen]: 5 UG/G BW ONCE AT 15 D OF AGE, Doses [Promoter]: 0, 12000 PPM IN DIET BEGINNING AT 4 WK OF AGE AND CONTINUING FOR DURATION OF STUDY (STUDY DURATION: 28 WK), Route [Carcinogen]: INTRAPERITONEAL, Route [Promoter]: ORAL, Species: MOUSE, Strain/Sex: C3H/HENCR/FEMALE) was “liver: hepatocellular adenoma”, the outcome (Carcinogen: N-NITROSODIETHYLAMINE, 55-18-5, Doses [Carcinogen]: 5 UG/G BW ONCE AT 15 D OF AGE, Doses [Promoter]: 0, 12000 PPM IN DIET BEGINNING AT 4 WK OF AGE AND CONTINUING FOR DURATION OF STUDY (STUDY DURATION: 28 WK), Route [Carcinogen]: INTRAPERITONEAL, Route [Promoter]: ORAL, Species: MOUSE, Strain/Sex: C3H/HENCR/MALE) was “liver: hepatocellular adenoma” and the outcome (Carcinogen: N-NITROSODIETHYLAMINE, 7119-92-8, Doses [Carcinogen]: 80 MG/KG ONCE, Doses [Promoter]: 0, 3000 PPM IN DIET BEGINNING 1 WK POST CARCINOGEN DOSE AND CONTINUING FOR 168 D (STUDY DURATION: 259 D), Route [Carcinogen]: INTRAPERITONEAL, Route [Promoter]: ORAL, Species: MOUSE, Strain/Sex: B6C3F1/MALE) was “liver: hepatocellular adenoma”.

For `CCCCCCCCCC(=O)OC[C@H](CO)OC(=O)CCCCCCCCC`, the outcome (Carcinogen: 7,12-DIMETHYLBENZ[A]ANTHRACENE, 57-97-6, Doses [Carcinogen]: 200 NMOL IN 200 µL OF ACETONE ONCE, Doses [Promoter]: 0, 2, 5 UMOL IN 20 µL ACETONE 2/D 5 D/WK FOR 20 WK BEGINNING 1 WK AFTER LAST CARCINOGEN DOSE (STUDY DURATION: 24 WK), Doses [Promoter]: 0, 2, 5 UMOL IN 20 µL ACETONE 2/D 5 D/WK FOR 20 WK BEGINNING 1 WK AFTER LAST CARCINOGEN DOSE (STUDY DURATION: 24 WK), Route [Carcinogen]: DERMAL, Route [Promoter]: DERMAL, Species: MOUSE, Strain/Sex: CD-1/FEMALE) is given as “skin: papilloma”.

For `CC[C@@H](C)[C@H](NC(=O)CN)C(=O)N[C@H](C(=O)N[C@@H](CCC(=O)O)C(=O)N[C@@H](CCC(N)=O)C(=O)N[C@H]1CSSC[C@H]2NC(=O)[C@H]([C@H](C)CC)NC(=O)[C@H](CO)NC(=O)[C@H]([C@H](C)O)NC(=O)[C@H](CSSC[C@H](NC(=O)[C@H](CC(C)C)NC(=O)[C@H](Cc3c[nH]cn3)NC(=O)[C@H](CCC(N)=O)NC(=O)[C@@H](NC(=O)[C@@H](NC(=O)[C@@H](N)Cc3ccccc3)C(C)C)C(N)=O)C(=O)NCC(=O)N[C@@H](CO)C(=O)N[C@@H](Cc3c[nH]cn3)C(=O)N[C@@H](CC(C)C)C(=O)N[C@@H](C(C)C)C(=O)N[C@@H](CCC(=O)O)C(=O)N[C@@H](C)C(=O)N[C@@H](CC(C)C)C(=O)N[C@@H](Cc3ccc(O)cc3)C(=O)N[C@@H](CC(C)C)C(=O)N[C@@H](C(C)C)C(=O)N[C@H](C(=O)NCC(=O)N[C@@H](CCC(=O)O)C(=O)N[C@@H](CCCNC(=N)N)C(=O)NCC(=O)N[C@@H](Cc3ccccc3)C(=O)N[C@@H](Cc3ccccc3)C(=O)N[C@@H](Cc3ccc(O)cc3)C(=O)N[C@H](C(=O)N3CCC[C@H]3C(=O)N[C@@H](CCCCN)C(=O)N[C@H](C(=O)O)[C@H](C)O)[C@H](C)O)CSSC[C@@H](C(=O)N[C@@H](CC(N)=O)C(=O)O)NC(=O)[C@H](Cc3ccc(O)cc3)NC(=O)[C@H](CC(N)=O)NC(=O)[C@H](CCC(=O)O)NC(=O)[C@H](CC(C)C)NC(=O)[C@H](CCC(N)=O)NC(=O)[C@H](Cc3ccc(O)cc3)NC(=O)[C@H](CC(C)C)NC(=O)[C@H](CO)NC2=O)NC1=O)C(C)C`, the outcome (Carcinogen: 7,12-DIMETHYLBENZ[A]ANTHRACENE, 57-97-6, Doses [Carcinogen]: 20 MG IN 4 ML OLIVE OIL ONCE, Doses [Promoter]: 0, 10 I.U./D BEGINNING 4 WK POST CARCINOGEN DOSE AND CONTINUING FOR DURATION OF STUDY (STUDY DURATION: 6 MO), Route [Carcinogen]: GAVAGE, Route [Promoter]: SUBCUTANEOUS, Species: RAT, Strain/Sex: SWISS/FEMALE) is listed as “mammary gland: tumor”.

In the case of `Oc1c(Cl)c(Cl)c(O)c(Cl)c1Cl`, the outcome (Carcinogen: 7,12-Dimethylbenzanthracene, 57-97-6, Doses [Carcinogen]: 100 ug in 100 ul acetone once at 7 wks of age, Doses [Promoter]: 100, 500 ug in 100 ul acetone 1 wk after carcinogen, 2 times a wk for 20 or 30 wks, Route [Carcinogen]: Dermal, Route [Promoter]: Dermal, Species: Mouse, Strain/Sex: CD-1/Female) is listed as “skin: tumors (dihydrolipoic acid significantly inhibited tumor incidence and mul”.
